Measurements from article PMC12497685, “Anticoronavirus Isoquinoline Alkaloids: Unraveling the Secrets of Their Structure–Activity Relationship” (Influenza and Other Respiratory Viruses, 2025).
“And” between values parts separate entries of the source, which are not always exact repeats. Equal values may be shown once. Read-outs that look alike come from different tables or passages of the source.

Experiments:
Huh7 cells = details: at 10 μM, compared with vehicle control, n = 1
in vitro = details: human
[1] = tested on: hACE‐2‐overexpressed HEK293T (ACE2‐293T cells)
HCoV‐229E = assay: microbe, parasite or virus in culture; type: cell-based; details: for inhibition at 10 µM: Human coronavirus 229E, Huh-7, read-out: Protective effects HCoV-229E %; for inhibition at 10 µM / Protective effects HCoV-229E %: compared with vehicle control, Huh7 cells, n = 1, at 10 μM

| Compound | Cytotoxicity to the host Huh7 cells % (Huh7 cells) | inhibition at 10 µM (HCoV‐229E) | Protective effects HCoV-229E % (HCoV‐229E) | other results |
| --- | --- | --- | --- | --- |
| COc1cc2c3cc1Oc1c(O)c(OC)cc4c1[C@@H](Cc1ccc(O)c(c1)Oc1ccc(cc1)C[C@@H]3N(C)CC2)N(C)CC4 [Compound 19, (+)‐obamegine] | — (Non-toxic (insignificant cytotoxic effects, below 20%)) | 80% |  | viability at 10 µM (in vitro): 97.5 ± 7.15%; cytotoxicity towards hACE2‐293 T cells (in words) [1]: nontoxic |
| COc1cc2c3cc1Oc1c(OC)c(OC)cc4c1[C@@H](Cc1ccc(O)c(c1)Oc1ccc(cc1)C[C@@H]3N(C)CC2)N(C)CC4 [Compound 17, (+)‐berbamine] | 25% and ~ 20% | 70% |  | viability at 10 µM (in vitro): 103 ± 2.42%; cytotoxicity towards hACE2‐293 T cells (in words) [1]: nontoxic |
| (±)‐Haemanthidine [Compound 1] | 20% and ~ 20% |  | 80% | cytotoxicity towards hACE2‐293 T cells (in words) [1]: toxic; Cell viability (%) ([1]; ACE2-293T, 10 μM, 24 h, WST-1): 51.97 ± 7.07%; EC50 (HCoV‐229E): 4.11 ± 0.41 µM |
| (+)‐aromoline [Compound 16] | — (Non-toxic (insignificant cytotoxic effects, below 20%)) |  | 85% | cytotoxicity towards hACE2‐293 T cells (in words) [1]: nontoxic; Cell viability (%) ([1]; 10 µM): 103.64 ± 3.23%; EC50 (HCoV‐229E): 4.33 ± 0.9 µM |
| COC1=C[C@]23CCN(C)[C@H](Cc4ccc(OC)c(O)c42)C3=CC1=O [Compound 59, (−)‐salutaridine] | — (Non-toxic (insignificant cytotoxic effects, below 20%)) |  | — (Not active (insignificant protective effects below 20%)) |  |
| c1cc2c(c3c1C[C@H]1c4cc5c(cc4CCN1C3)OCO5)OCO2 [Compound 49, (−)‐stylopine] | — (Non-toxic (insignificant cytotoxic effects, below 20%)) |  | — (Not active (insignificant protective effects below 20%)) |  |
| O[C@@H]1CC=C2CCN3Cc4cc5c(cc4[C@H]1[C@@H]23)OCO5 [Compound 15, (−)‐caranine] | — (Non-toxic (insignificant cytotoxic effects, below 20%)) |  | — (Not active (insignificant protective effects below 20%)) |  |
| COc1cc2c(cc1O)[C@]1(Cc3ccc4c(c3C1=O)OCO4)N(C)CC2 [Compound 42, (+)‐parfumine] | — (Non-toxic (insignificant cytotoxic effects, below 20%)) |  | — (Not active (insignificant protective effects below 20%)) |  |
| COC1=CC=C2[C@H]3Cc4ccc(OC)c5c4[C@@]2(CCN3C)[C@H]1O5 [Compound 54, thebaine] | — (Non-toxic (insignificant cytotoxic effects, below 20%)) | < 20% |  |  |
| COC1=C[C@@]23CCN(C)[C@@H](Cc4cc(O)c(OC)cc42)C3=CC1=O [Compound 60, (−)‐pallidine] | — (Non-toxic (insignificant cytotoxic effects, below 20%)) |  | — (Not active (insignificant protective effects below 20%)) |  |
| COc1cc2c(cc1OC)C1Cc3ccc(OC)c(O)c3C(C2)N1C (stereo not drawn) [Compound 24, (−)‐platycerine] | — (Non-toxic (insignificant cytotoxic effects, below 20%)) |  | — (Not active (insignificant protective effects below 20%)) |  |
| COc1cc2c(cc1OC)-c1c(OC)c(OC)cc3ccnc(c13)C2=O [Compound 61, oxoglaucine] | — (Non-toxic (insignificant cytotoxic effects, below 20%)) | < 20% |  |  |
| COc1cc2c(cc1OC)[C@@H](O)O[C@@H]1CC=C3CCN(C)[C@H]3[C@H]21 [Compound 7, lycorenine] | 20% |  | — (Not active (insignificant protective effects below 20%)) |  |
| COc1ccc2c(c1OC)CN1CCc3cc4c(cc3C1C2)OCO4 (stereo not drawn) [Compound 26, (+)‐canadine] | — (Non-toxic (insignificant cytotoxic effects, below 20%)) |  | — (Not active (insignificant protective effects below 20%)) |  |
| O[C@H]1C=C[C@@]23c4cc5c(cc4CN(C[C@@H]2O)[C@H]3C1)OCO5 [Compound 2, (+)‐hamayne] | — (Non-toxic (insignificant cytotoxic effects, below 20%)) |  | — (Not active (insignificant protective effects below 20%)) |  |
| CN1Cc2c(ccc3c2OCO3)[C@@H]2[C@H]1c1cc3c(cc1C[C@@H]2O)OCO3 [Compound 50, chelidonine] | 35% and 35%–40% | < 20% |  |  |
| (−)‐fumarophycine hydrochloride [Compound 37] | — (Non-toxic (insignificant cytotoxic effects, below 20%)) |  | — (Not active (insignificant protective effects below 20%)) |  |
| COc1cc2c(cc1Oc1c3c(cc(OC)c1OC)CCN(C)C3)C(Cc1ccc(O)cc1)N(C)CC2 (stereo not drawn) [Compound 20, (−)‐muraricine] | — (Non-toxic (insignificant cytotoxic effects, below 20%)) |  | 50% |  |
| COc1ccc2c(c1OC)C(=O)O[C@@H]2[C@H]1c2c(cc3c(c2OC)OCO3)CCN1C [Compound 55, (−)‐narcotine] | 20% | < 20% |  |  |
| O[C@H]1C=C[C@@]23CCN(Cc4cc5c(cc42)OCO5)[C@@H]3C1 [Compound 14, (−)‐crinine] | — (Non-toxic (insignificant cytotoxic effects, below 20%)) |  | — (Not active (insignificant protective effects below 20%)) |  |
| CN1CCC2=C[C@H](O)[C@H]3OC(=O)c4cc5c(cc4[C@H]3[C@@H]21)OCO5 [Compound 12, hippeastrine] | 25% |  | — (Not active (insignificant protective effects below 20%)) |  |
| O[C@@H]1Cc2cc3c(cc2[C@@H]2NCc4c(ccc5c4OCO5)[C@H]12)OCO3 [Compound 48, norchelidonine] | 50% | 50% |  |  |
